Values of other authors as cited in patent US7833744B2, “Methods to evaluate cytochrome P450 2C19 isoenzyme activity using a breath test” (Cambridge Isotope Laboratories, Inc., priority 2006, dated 2010).

Tests used:
[1] = target: CYP2C19 (Homo sapiens, UniProt P33261); details: in EMs
[2] = test system: CYP2C19; details: PMs vs EMs
[3] = test system: platelets; details: healthy volunteers who carry CYP2C19*2 compared to CYP2C19*1*1 genotype

CYP2C19 (Homo sapiens, UniProt P33261), sequence (P33261 whole entry): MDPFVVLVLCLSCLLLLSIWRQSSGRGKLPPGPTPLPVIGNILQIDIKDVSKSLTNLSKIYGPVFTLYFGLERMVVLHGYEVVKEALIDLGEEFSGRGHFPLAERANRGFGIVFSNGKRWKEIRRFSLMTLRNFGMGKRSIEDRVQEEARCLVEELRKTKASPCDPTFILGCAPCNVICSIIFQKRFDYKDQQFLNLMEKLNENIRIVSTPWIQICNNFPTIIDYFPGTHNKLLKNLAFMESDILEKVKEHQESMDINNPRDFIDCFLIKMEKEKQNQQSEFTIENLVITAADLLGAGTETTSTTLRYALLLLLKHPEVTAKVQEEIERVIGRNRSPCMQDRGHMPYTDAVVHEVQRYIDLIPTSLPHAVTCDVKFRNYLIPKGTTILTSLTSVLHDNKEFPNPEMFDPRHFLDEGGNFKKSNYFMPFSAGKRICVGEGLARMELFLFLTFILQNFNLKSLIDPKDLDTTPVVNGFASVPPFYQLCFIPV

share of dose cleared by CYP2C19 [1]	exposure in PMs relative to EMs of CYP2C19 [2]	Compound	anti-platelet effect [3]
approximately 80%	about six-fold higher	Cc1c(OCC(F)(F)F)ccnc1C[S+]([O-])c1nc2ccccc2[nH]1 (stereo not shown) [lansoprazole]	
		COC(=O)[C@H](c1ccccc1Cl)N1CCc2sccc2C1 [clopidogrel]	no anti-platelet effect
approximately 80%	about six-fold higher	COc1ccc2[nH]c([S+]([O-])Cc3ncc(C)c(OC)c3C)nc2c1 (stereo not shown) [omeprazole]	
approximately 80%	about six-fold higher	COc1ccnc(C[S+]([O-])c2nc3ccc(OC(F)F)cc3[nH]2)c1OC (stereo not shown) [pantoprazole]	
